Measured values as given in patent US9422254B2, “Methoxyacrylate-based fungicide and methods for preparing and using the same” (priority 2008, dated 2016).

Legend:
[1] = tested on: Colletotrichum gloeosporioides (second entry, r74); experiment: In vitro inhibition, pathogens from tropical plants; type: cell-based
Procedure: (§1) 5 wt % formulation of the active compound of Formula (I) was prepared into a solution (300 mg/L). To a sterilized Erlenmeyer flask, 2 mL of the solution and 18 mL of PDA culture medium (50° C.) were added. The mixture was shaken uniformly and dumped into two dishes whose diameter was 9 cm to yield two toxic PDA culture mediums having a concentration of 30 mg/L. Various cultured pathogens were punched at the edge of colony by a puncher having a diameter of 5 mm respectively, and the obtained pieces were transferred to the center of the toxic PDA culture medium by an inoculating needle and cultured in an incubator at 25° C. Repeat the above steps. According to the growth status of CK colony, the colony diameter of pathogens was measured by crossing method with a caliper and thereby a corrected inhibition percentage was calculated.
(§2) For each colony, diameter was measured twice by crossing method and the average was practicable. The colony growth inhibition rate was calculated as follows: Colony growth inhibition rate %=(diameter of CK colony−diameter of target colony)×100/diameter of CK colony
(§3) Following the above method, as targets 17 pathogens originated from tropical plants were tested. The pathogens were Rhizopus sp., Aspergillus, Colletotrichum gloeosporioides Penz, Banana Fusarium wilt, Colletouichum coccodes, Hughas, B. heveas, Cucumber mosaic virusstrain banana, Banana Sigatoka Leaf Spot Disease, Colletotrichum gloeosporioides, Colletotrichum musae (Berk & Curt) Arx, Botryodiplodia theobromae, Cladosporium cucumerinum Ellis et Arthur, Periconia hevenae, Colletotrichum gloeosporioides, B. cinerea, Diplodia natalensis, and Curvularia.

[2] = tested on: Colletotrichum musae (Berk & Curt) Arx; experiment: as above; type: cell-based
Procedure: as §1, §2, §3

Banana Fusarium wilt = experiment: as above; type: cell-based
Procedure: as §1, §2, §3

Curvularia = experiment: as above; type: cell-based
Procedure: as §1, §2, §3

[3] = tested on: Colletouichum coccodes. Hughas; experiment: as above; type: cell-based
Procedure: as §1, §2, §3

B. heveas = experiment: as above; type: cell-based
Procedure: as §1, §2, §3

[4] = tested on: Banana Sigatoka Leaf Spot Disease; experiment: as above; type: cell-based
Procedure: as §1, §2, §3

[5] = tested on: Botryodiplodia theobromae; experiment: as above; type: cell-based; details: Lasiodiplodia theobromae
Procedure: as §1, §2, §3

[6] = tested on: Colletotrichum gloeosporioides Penz; experiment: as above; type: cell-based
Procedure: as §1, §2, §3

Rhizopus sp. = experiment: as above; type: cell-based
Procedure: as §1, §2, §3

B. cinerea = experiment: as above; type: cell-based; details: Botrytis cinerea
Procedure: as §1, §2, §3

[7] = tested on: Cucumber mosaic virusstrain banana; experiment: as above; type: cell-based
Procedure: as §1, §2, §3

Aspergillus = experiment: as above; type: cell-based
Procedure: as §1, §2, §3

[8] = tested on: Cladosporium cucumerinum Ellis et Arthur; experiment: as above; type: cell-based
Procedure: as §1, §2, §3

bee = experiment: Acute contact toxicity test on bee; type: in vivo
Procedure: After acute toxicity and Ames test had been finished, environmental toxicity test was conducted following “Guideline for Environmental Safety Evaluation of Chemical Pesticides” of Agriculture Ministry of China by Shenyang Chemical Research Institute/Supervision and Test Center for Pesticide Safety Evaluation and Quality Control.

Ustilaginoidea virens = experiment: microbe, parasite or virus in culture; type: cell-based
guinea pig skin = experiment: Skin sensitization test; type: in vivo
Procedure: The toxicological indexes of the compound were tested following the standard GB15670-1995 “Toxicological test methods of pesticides for registration” by Tongji Medical College, Huazhong University of Science and Technology.

[9] = tested on: Cucumber sclerotinia rot (strain HGJH); experiment: In vivo micro-screening assay
Procedure: In Vivo Micro-Screening Assay
To further study the fungicidal spectrum of the compound of Formula (I), indoor in vivo micro-screening assay were carried out on cucumber gray mold, cucumber scab, cucumber sclerotinia rot, cucumber brown spot, pepper phytophthora blight, and rice sheath blight.
Cucumber scab strain: HX; cucumber brown spot strain: SDHGHB060509; cucumber sclerotinia rot strain: HGJH; pepper phytophthora blight strain: NSGP; and rice sheath blight strain: WK-1.
Medicament to be tested and medicament of control groups were prepared as needed in a sunny morning. Cucumber gray mold, cucumber scab, cucumber brown spot, cucumber sclerotinia rot, and rice sheath blight were medicated by spray, and after air dry, pathogens of cucumber scab and of cucumber brown spot were inoculated through spraying spore suspension respectively, pathogens of cucumber gray mold, of cucumber sclerotinia rot, and of rice sheath blight were inoculated through lawn foliage. Pepper phytophthora blight was medicated and inoculated by root-irrigation. Subsequently, all seedlings were cultured in wet environment.
After the disease of control groups were serious, spot area, disease index, and the diseased seedling rate were investigated to calculate the efficacy. Cucumber scab, cucumber brown spot, and pepper phytophthora blight were investigated by grading method. The spot extension area of cucumber gray mold and of rice sheath blight was investigated. The diseased seedling rate of cucumber sclerotinia rot was investigated. Disease index=Σ(amount of infected diseased leaves in a grade×relative value of the grade)×100/(total amount of leaves×9); Diseased seedling rate (%)=(total amount of seedlings−amount of diseased seedlings)/total amount of seedlings×100% Prevention and treatment effect (%)=(disease of control group−disease of experiment group)/disease of control group×100%

[10] = 0.1 mg/L, read-out: Inhibition rate (%)
[11] = 1 mg/L, read-out: Inhibition rate (%)
[12] = 5 mg/L, read-out: Inhibition rate (%)
[13] = 10 mg/L, read-out: Inhibition rate (%)
[14] = 20 mg/L, read-out: Inhibition rate (%)
[15] = 25 mg/L, read-out: Inhibition rate (%)
[16] = 50 mg/L, read-out: Inhibition rate (%)
[17] = 15 mg/L, read-out: Inhibition rate (%)
[18] = 0.5 mg/L, read-out: Inhibition rate (%)

## CO/C=C(/C(=O)OC)c1ccccc1CSc1nc2cc(OC)ccc2s1 [Compound of Formula (I), (E)-methyl 3-methoxy-2-(2-((5-methoxy-benzothiazol-2-ylthio)methyl)phenyl)acrylate]
[1]
  EC50: 6.92 µg/mL
[1]; [10]
  inhibition at 0.1 µg/mL: 7.12%
[1]; [11]
  inhibition at 1 µg/mL: 19.3%
[1]; [12]
  inhibition at 5 µg/mL: 33.8%
[1]; [13]
  inhibition at 10 µg/mL: 55.2%
[1]; [14]
  inhibition at 20 µg/mL: 87.2%
[2]
  EC50: 1.66 µg/mL
[2]; [10]
  inhibition at 0.1 µg/mL: 19.1%
[2]; [11]
  inhibition at 1 µg/mL: 37.2%
[2]; [12]
  inhibition at 5 µg/mL: 64.5%
[2]; [13]
  inhibition at 10 µg/mL: 78.7%
[2]; [14]
  inhibition at 20 µg/mL: 85.8%
Banana Fusarium wilt
  EC50: 9.22 µg/mL
Banana Fusarium wilt; [11]
  inhibition at 1 µg/mL: 13.5%
Banana Fusarium wilt; [12]
  inhibition at 5 µg/mL: 30.2%
Banana Fusarium wilt; [13]
  inhibition at 10 µg/mL: 60.5%
Banana Fusarium wilt; [15]
  inhibition at 25 µg/mL: 67.6%
Banana Fusarium wilt; [16]
  inhibition at 50 µg/mL: 80.4%
Curvularia
  EC50: 0.505 µg/mL
Curvularia; [10]
  inhibition at 0.1 µg/mL: 28.8%
Curvularia; [11]
  inhibition at 1 µg/mL: 63.5%
Curvularia; [12]
  inhibition at 5 µg/mL: 75.9%
Curvularia; [13]
  inhibition at 10 µg/mL: 76.6%
Curvularia; [17]
  inhibition at 15 µg/mL: 80.6%
[3]
  EC50: 7.13 µg/mL
[3]; [10]
  inhibition at 0.1 µg/mL: 10.1%
[3]; 2 mg/L, read-out: Inhibition rate (%)
  inhibition at 2 µg/mL: 22.3%
[3]; [12]
  inhibition at 5 µg/mL: 42.1%
[3]; [17]
  inhibition at 15 µg/mL: 61.3%
[3]; [15]
  inhibition at 25 µg/mL: 83.5%
B. heveas
  EC50: 1.99 µg/mL
B. heveas; [10]
  inhibition at 0.1 µg/mL: 9.09%
B. heveas; [11]
  inhibition at 1 µg/mL: 43.9%
B. heveas; [12]
  inhibition at 5 µg/mL: 61.4%
B. heveas; [13]
  inhibition at 10 µg/mL: 70.5%
B. heveas; [17]
  inhibition at 15 µg/mL: 81.4%
[4]
  EC50: 1.5 µg/mL
[4]; [10]
  inhibition at 0.1 µg/mL: 17.2%
[4]; [11]
  inhibition at 1 µg/mL: 43.5%
[4]; [12]
  inhibition at 5 µg/mL: 63.7%
[4]; [13]
  inhibition at 10 µg/mL: 77.9%
[4]; [14]
  inhibition at 20 µg/mL: 85.8%
[5]
  EC50: 3.7 µg/mL
[5]; [18]
  inhibition at 0.5 µg/mL: 14.6%
[5]; [11]
  inhibition at 1 µg/mL: 31.7%
[5]; [12]
  inhibition at 5 µg/mL: 51.6%
[5]; [13]
  inhibition at 10 µg/mL: 65.8%
[5]; [14]
  inhibition at 20 µg/mL: 84%
[6]
  EC50: 4.63 µg/mL
[6]; [10]
  inhibition at 0.1 µg/mL: 16.7%
[6]; [11]
  inhibition at 1 µg/mL: 31.1%
[6]; [12]
  inhibition at 5 µg/mL: 50.2%
[6]; [13]
  inhibition at 10 µg/mL: 54.9%
[6]; [15]
  inhibition at 25 µg/mL: 69.3%
[6]; [16]
  inhibition at 50 µg/mL: 80.9%
Rhizopus sp.
  EC50: 4.18 µg/mL
Rhizopus sp.; [11]
  inhibition at 1 µg/mL: 18.4%
Rhizopus sp.; [12]
  inhibition at 5 µg/mL: 53.1%
Rhizopus sp.; [13]
  inhibition at 10 µg/mL: 69.3%
Rhizopus sp.; [17]
  inhibition at 15 µg/mL: 83.6%
Rhizopus sp.; [14]
  inhibition at 20 µg/mL: 88.5%
B. cinerea
  EC50: 1 µg/mL
B. cinerea; [10]
  inhibition at 0.1 µg/mL: 12.8%
B. cinerea; [18]
  inhibition at 0.5 µg/mL: 35.1%
B. cinerea; [11]
  inhibition at 1 µg/mL: 54.5%
B. cinerea; [12]
  inhibition at 5 µg/mL: 73.3%
B. cinerea; [13]
  inhibition at 10 µg/mL: 88.1%
[7]
  EC50: 1.92 µg/mL
[7]; [10]
  inhibition at 0.1 µg/mL: 9.84%
[7]; [11]
  inhibition at 1 µg/mL: 40.2%
[7]; [12]
  inhibition at 5 µg/mL: 62.3%
[7]; [13]
  inhibition at 10 µg/mL: 76.6%
[7]; [17]
  inhibition at 15 µg/mL: 84.8%
Aspergillus
  EC50: 5.03 µg/mL
Aspergillus; [10]
  inhibition at 0.1 µg/mL: 10.6%
Aspergillus; [11]
  inhibition at 1 µg/mL: 27.4%
Aspergillus; [12]
  inhibition at 5 µg/mL: 47.8%
Aspergillus; [13]
  inhibition at 10 µg/mL: 58.4%
Aspergillus; [15]
  inhibition at 25 µg/mL: 71.4%
Aspergillus; [16]
  inhibition at 50 µg/mL: 86.1%
[8]
  EC50: 4.84 µg/mL
[8]; [11]
  inhibition at 1 µg/mL: 6.77%
[8]; 2.5 mg/L, read-out: Inhibition rate (%)
  inhibition at 2.5 µg/mL: 28.3%
[8]; [12]
  inhibition at 5 µg/mL: 55%
[8]; [13]
  inhibition at 10 µg/mL: 72.1%
[8]; [14]
  inhibition at 20 µg/mL: 84.9%
bee
  LC50 (48 hrs): LC50 (48 hrs) > 100 μg a.i./per bee
Ustilaginoidea virens
  in vitro effect: particularly effective
Ustilaginoidea virens; Ustilaginoidea virens, 0.3 mg/L, read-out: Inhibition rate (%)
  inhibition at 0.3 µg/mL: 74.8%
Ustilaginoidea virens; Ustilaginoidea virens, 3 mg/L, read-out: Inhibition rate (%)
  inhibition at 3 µg/mL: 100%
Ustilaginoidea virens; Ustilaginoidea virens, 30 mg/L, read-out: Inhibition rate (%)
  inhibition at 30 µg/mL: 100%
Guinea pig skin
  Skin sensitization: Weak allergen (grade I) on guinea
[9]; 100 mg/L
  Efficacy (%): 16.84%
  Spot area (mm^2): 70.08 mm^2
[9]; 500 mg/L
  Efficacy (%): 58.88%
  Spot area (mm^2): 34.65 mm^2
